Experimental data as given in patent US8383636B2, “Acyclic amine inhibitors of 5-methytioadenosine phosphorylase and nucleosidase” (priority 2006, dated 2013).

Legend:
[1] = molecular target: T1, E. coli MTAN (Escherichia coli, UniProt P0AF12); test: Inhibition constants with E. coli MTAN (xanthine oxidase-coupled assay); type: biochemical; details: 25° C., pH 7.5, MTA as substrate
T1 construct: made in house
Protocol: (§1) E. coli MTAN and human MTAP were obtained according to the reported methods (Singh, et al, Biochemistry 44, 11647-11659 (2005); Singh and Schramm J. Am. Chem. Soc. 128, 14691-14696 (2006). The MTAN gene sequences from N. meningitides MC58 and H. pylori J99 were amplified from genomic DNA (ATCC) and cloned into a modified pET-32 vector to direct high-level expression of MTAN with a non-cleavable N-terminal 6His tag. 1.5 L cultures of BL21(DE3) harbouring MTAN constructs were induced with 0.5 mM IPTG for 20 hours at 25° C. with vigorous shaking. Cell pellets were washed and lysed in 40 mL lysis buffer (25 mM HEPES, 0.5M NaCl, 10 mM imidazole pH 7.6, protease inhibitors and 0.25 mM TCEP) with the use of a cell disrupter at 15K psi. After removal of cell debris by centrifugation, the soluble cell lysates were loaded onto nickel-charged chelating sepharose (GE Healthcare) and washed with lysis buffer containing 20-150 mM imidazole. The 6His-MTANs were eluted in 250 mM imidazole, desalted using a Sephadex G-15 (GE Healthcare) gel filtration column, equilibrated with low salt buffer (100 mM HEPES, 30 mM KCL, pH 7.6) and concentrated to 40 mg/mL.
(§2) Inhibitor concentrations were obtained from the absorbance at 274 nm with extinction coefficient of 8.5 mM^−1 cm^−1 for 9-deazaadenine moiety.
(§3) MTAN activities were assayed as reported previously (Singh et al (2006) Biochemistry 45, 12929-12941; Singh, et al (2005) J. Biol. Chem. 280, 18265-18273). Briefly, all experiments were carried out at 25° C., in 1 mL total reaction volume containing 100 mM HEPES buffer, pH 7.5 and 50 mM KCl with 5′-deoxymethylthioadenosine (MTA) as substrate. Kinetic constants (kcat and Km) were determined by monitoring MTA hydrolysis at 274 nm where ΔεMTA=1.6 mM^−1 cm^−1. For measuring dissociation constant (Kd) of inhibitors, a xanthine oxidase-coupled assay was carried out. In this assay, saturating levels (1-2 mM) of MTA and various concentrations of inhibitor were mixed with xanthine oxidase (0.5 unit/mL), which is used to convert the MTAN product adenine to 2,8-dihydroxyadenine (ε2,8-dihydroxadenine=15.2 mM^−1 cm^−1 at 293 nm). Reactions were initiated by the addition of 8-10 nM MTAN, and the absorbance at 293 was monitored. Control experiments were carried out in the absence of either inhibitor or MTAN.
(§4) [formula] where vs′ and vs are steady state rates in the presence, and absence of inhibitor, respectively; Km is substrate Michaelis constant which was obtained as described above; [S] and [I] are the concentrations of the substrate MTA and inhibitor, respectively. […] All data fitting was carried out with KaleidaGraph™ ver. 3.5 (Synergy Software).

[2] = molecular target: T2, human MTAP (Homo sapiens, UniProt Q13126); test: Inhibition constants with MTAP (continuous spectrophotometric assay); type: biochemical
T2 construct: made in house
T2 sequence (Q13126 1-283): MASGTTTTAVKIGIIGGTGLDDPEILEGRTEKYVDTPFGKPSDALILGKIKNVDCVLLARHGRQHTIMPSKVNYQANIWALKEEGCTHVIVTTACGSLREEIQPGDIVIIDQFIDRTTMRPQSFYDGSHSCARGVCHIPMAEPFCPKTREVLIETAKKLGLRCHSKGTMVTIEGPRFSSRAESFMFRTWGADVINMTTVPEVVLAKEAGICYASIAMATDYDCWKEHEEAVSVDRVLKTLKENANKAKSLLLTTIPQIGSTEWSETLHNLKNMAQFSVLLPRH
Protocol: After removal of cell debris by centrifugation, the soluble cell lysates were loaded onto nickel-charged chelating sepharose (GE Healthcare) and washed with lysis buffer containing 20-150 mM imidazole. The 6His-MTANs were eluted in 250 mM imidazole, desalted using a Sephadex G-15 (GE Healthcare) gel filtration column, equilibrated with low salt buffer (100 mM HEPES, 30 mM KCL, pH 7.6) and concentrated to 40 mg/mL.
Continuous spectrophotometric assays were used to characterize the inhibitors of the invention and […] inhibition of MTAP.

[3] = molecular target: N. meningitides MTAN (Neisseria meningitidis, UniProt Q9K054); test: Inhibition constants with N. meningitides MTAN (xanthine oxidase-coupled assay); type: biochemical, N. meningitides MC58; details: 25° C., pH 7.5, MTA as substrate
N. meningitides MTAN, sequence (Q9K054 entry or part of it): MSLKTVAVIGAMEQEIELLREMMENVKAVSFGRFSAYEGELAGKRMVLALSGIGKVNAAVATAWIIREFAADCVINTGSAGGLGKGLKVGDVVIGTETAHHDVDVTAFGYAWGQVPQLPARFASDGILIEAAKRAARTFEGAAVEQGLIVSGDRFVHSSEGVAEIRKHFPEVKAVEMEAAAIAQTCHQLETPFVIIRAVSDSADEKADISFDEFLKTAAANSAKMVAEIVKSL
Protocol: as §1, §2, §3, §4

T1 sequence (P0AF12 whole entry): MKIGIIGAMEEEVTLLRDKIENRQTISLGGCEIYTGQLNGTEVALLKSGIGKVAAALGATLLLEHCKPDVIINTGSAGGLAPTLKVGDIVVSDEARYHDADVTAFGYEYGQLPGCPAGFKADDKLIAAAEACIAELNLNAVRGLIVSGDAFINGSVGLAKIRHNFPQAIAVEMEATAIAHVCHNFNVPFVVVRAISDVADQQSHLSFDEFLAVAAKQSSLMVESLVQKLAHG

Row | Structure (SMILES) | Kd [1] [µM] | Kd [2] [µM] | Kd [3] [µM]
1 | CSC[C@H](O)[C@@H](O)CN(C)Cc1c[nH]c2c(N)ncnc12 [Example 11, (2S,3R)-1-(((4-amino-5H-pyrrolo[3,2-d]pyrimidin-7-yl)methyl)(methyl)amino)-4-(methylthio)butane-2,3-diol] | 0.202 ± 0.035 |  | 
2 | CSC[C@@H](O)CNCc1c[nH]c2c(N)ncnc12 [Example 2, (S)-1-((4-amino-5H-pyrrolo[3,2-d]pyrimidin-7-yl)methylamino)-3-(methylthio)propan-2-ol] | 0.004 ± 0.0005 | 0.06 ± 0.008 | 0.0036 ± 0.0004
3 | CSC[C@@H](O)[C@@H](CO)N(C)Cc1c[nH]c2c(N)ncnc12 [Example 8, (2R,3S)-2-(((4-amino-5H-pyrrolo[3,2-d]pyrimidin-7-yl)methyl)(methyl)amino)-4-(methylthio)butane-1,3-diol] | 0.062 ± 0.005 | 0.088 ± 0.021 | 0.0193 ± 0.0003
4 | CSCC(CO)(CO)NCc1c[nH]c2c(N)ncnc12 [Example 1, 2-((4-amino-5H-pyrrolo[3,2-d]pyrimidin-7-yl)methylamino)-2-(methylthiomethyl)propane-1,3-diol] | 0.0058 ± 0.0008 | 0.034 ± 0.024 | 0.004 ± 0.002
5 | CSC[C@H](O)[C@@H](CO)CN(C)Cc1c[nH]c2c(N)ncnc12 (racemic) [Example 10, (2RS,3RS)-2-((((4-amino-5H-pyrrolo[3,2-d]pyrimidin-7-yl)methyl)(methyl)amino)methyl)-4-(methylthio)butane-1,3-diol] | 0.065 ± 0.006 |  | 0.132 ± 0.009
6 | CSC[C@H](O)[C@H](CO)NCc1c[nH]c2c(N)ncnc12 [Example 7, (2S,3R)-2-((4-amino-5H-pyrrolo[3,2-d]pyrimidin-7-yl)methylamino)-4-(methylthio)butane-1,3-diol] |  | 0.087 ± 0.011 | 
7 | CSC[C@@H](CN(C)Cc1c[nH]c2c(N)ncnc12)[C@@H](O)CO [Example 4, (2R,3S)-4-(((4-amino-5H-pyrrolo[3,2-d]pyrimidin-7-yl)methyl)(methyl)amino)-3-(methylthiomethyl)butane-1,2-diol] | 2.3 ± 0.6 |  | 
8 | CSC[C@@H](CNCc1c[nH]c2c(N)ncnc12)[C@@H](O)CO (racemic) [Example 3, (2RS,3SR)-4-[(4-amino-5H-pyrrolo[3,2-d]pyrimidin-7-yl)methylamino]-3-(methylthiomethyl)butane-1,2-diol] | 0.009 ± 0.002 |  | 0.005 ± 0.001
9 | CSC[C@H](CO)N[C@H](CO)c1c[nH]c2c(N)ncnc12 [Example 12, (S)-2-((S)-1-(4-amino-5H-pyrrolo[3,2-d]pyrimidin-7-yl)-2-hydroxyethylamino)-3-(methylthio)propan-1-ol] | 0.154 ± 0.015 | 0.13 ± 0.02 | 0.047 ± 0.004
10 | CSC[C@H](O)[C@@H](CO)CNCc1c[nH]c2c(N)ncnc12 (racemic) [Example 9, (2RS,3RS)-2-{[(4-amino-5H-pyrrolo[3,2-d]pyrimidin-7-yl)methylamino]methyl}-4-(methylthio)butane-1,3-diol] | 0.025 ± 0.002 | 0.278 ± 0.027 | 0.0128 ± 0.0009
